Reference: US8440713B2, “[1]benzothieno[3,2-B][1]benzothiophene compound and method for producing the same, and organic electronic device using the same” (Ricoh Company, Ltd., priority 2008, dated 2013)

assay: Solubility of the precursor in chloroform, toluene and THF (solution left to stand, precipitation observed); assay type: physicochemical; conditions: toluene and THF, 1.0% by mass and 5.0% by mass, filtered, left to stand over night at room temperature
Method: Precursor 1 synthesized in Example 1 was dissolved respectively in chloroform, toluene and THF so as to be contained therein in concentrations of 1.0% by mass and 5.0% by mass, and then passed through a filter so as to prepare each solution.
The evaluation criteria of the solubility in Table 1 are as follows:
A: No precipitation of a solute was observed when a precursor was dissolved in each solution so as to be contained in a concentration of 5% by mass, and then left to stand for 12 hours at a room temperature.
B: No precipitation of a solute was observed when a precursor was dissolved in each solution so as to be contained in a concentration of 1% by mass, and then left to stand for 12 hours at a room temperature.
C: Precipitation of a solute was observed when a precursor was dissolved in each solution so as to be contained in a concentration of 1% by mass, and then left to stand for 12 hours at a room temperature.

Question: With CCCCCCC(CCCC)C(=O)OC(CC)c1ccc(-c2ccc3c(c2)sc2c4ccc(-c5ccc(C(CC)OC(=O)C(CCCC)CCCCCC)s5)cc4sc32)s1 (stereo not shown) [Example 13] as the compound, how does the “solute separation from solution” value read?
Answer: solute separation was not observed at all in any solvent and concentration

same assay, conditions: toluene, THF, 1% or 5% by mass, left to stand 12 hours at room temperature

Question: For c1ccc(-c2ccc3c(c2)sc2c4ccc(-c5ccccc5)cc4sc32)cc1 [Comparative Example 1, 2,7-diphenyl [1]benzothieno[3,2-b][1]benzothiophene, reference compound], which Solubility is on record?
Answer: C (Precipitation of a solute was observed when a precursor was dissolved in each solution so as to be contained in a concentration of 1% by mass, and then left to stand for 12 hours at a room temperature.)

Question: Which Solubility does the source give for CCCCCCC(CCCC)C(=O)OC(CC)c1ccc(-c2ccc(-c3ccc4c(c3)sc3c5ccc(-c6ccc(-c7ccc(C(CC)OC(=O)C(CCCC)CCCCCC)s7)s6)cc5sc43)s2)s1 (stereo not shown) [Example 15] here?
Answer: A (No precipitation of a solute was observed when a precursor was dissolved in each solution so as to be contained in a concentration of 5% by mass, and then left to stand for 12 hours at a room temperature.)

Question: For CCCCCCCCc1ccc2c(c1)sc1c3ccc(CCCCCCCC)cc3sc21 [Comparative Example 2, 2,7-dioctyl[1]benzothieno[3,2-b][1]benzothiophene, reference compound], which Solubility is on record?
Answer: B (No precipitation of a solute was observed when a precursor was dissolved in each solution so as to be contained in a concentration of 1% by mass, and then left to stand for 12 hours at a room temperature.)

Question: With CCCCCCC(CCCC)C(=O)OC(CC)c1ccc(-c2ccc3c(c2)sc2c4ccc(-c5ccc(C(CC)OC(=O)C(CCCC)CCCCCC)cc5)cc4sc32)cc1 (stereo not shown) [Example 14] as the compound, how does the Solubility read?
Answer: A (No precipitation of a solute was observed when a precursor was dissolved in each solution so as to be contained in a concentration of 5% by mass, and then left to stand for 12 hours at a room temperature.)

Question: With CCCCSC(=S)OC(CC)c1ccc(-c2ccc3c(c2)sc2c4ccc(-c5ccc(C(CC)OC(=S)SCCCC)s5)cc4sc32)s1 (stereo not shown) [Example 16] as the compound, how does the Solubility read?
Answer: A (No precipitation of a solute was observed when a precursor was dissolved in each solution so as to be contained in a concentration of 5% by mass, and then left to stand for 12 hours at a room temperature.)

Question: With CCCCCCC(CCCC)C(=O)OC(CC)c1ccc(-c2ccc3c(c2)sc2c4ccc(-c5ccc(C(CC)OC(=O)C(CCCC)CCCCCC)s5)cc4sc32)s1 (stereo not shown) [Example 13] as the compound, how does the Solubility read?
Answer: A (No precipitation of a solute was observed when a precursor was dissolved in each solution so as to be contained in a concentration of 5% by mass, and then left to stand for 12 hours at a room temperature.)
